Data: patent US20060154922A1, “Muscarinic agonists” (ELILILLY AND COMPANY, priority 2003, published 2006)
Where two headings read alike, the source gives them in different places.

Tested on: Male Sprague-Dawley rats
Details: six-hour delay

Question: Which results are given for `Nc1c2c(nc3ccccc13)CCCC2` [Tacrine, tacrine]?
Answer: retention (errors in the retention session) (3 mg/kg s.c. immediately after the sampling phase): not; retention (errors in the retention session) (10 mg/kg s.c. immediately after the sampling phase): significantly improved retention
